Results: patent US11214803B2, “Modulators of YAP1 expression” (Ionis Pharmaceuticals, Inc., priority 2019, dated 2022)
Strand notation (5' to 3'): a small letter for the sugar, then the base; units joined by * are phosphorothioate-linked, units joined directly phosphodiester-linked; [ ] holds rarer units or linkages, { } end groups; capitals alone tell only the bases. k = constrained ethyl (cEt); [5mC] = 5-methylcytosine; d = 2'-deoxy (DNA)

test system: Yap1 mRNA; assay: Antisense inhibition of human Yap1 in A-431 cells by cEt gapmers, single dose (Example 4, RTS4814); assay type: cell-based; settings: Table 14; A-431 cells, 5,000 cells per well, free uptake, 2,000 nM, approximately 48 hours; RTS4814; normalized to RIBOGREEN; Yap1 mRNA relative to untreated control; * = targets amplicon region of primer probe set
Summary of the method: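 A-431 cells took up 3-10-3 cEt gapmers (16-mer, full phosphorothioate, 5-methylcytosines) by free uptake at 2,000 nM for about 48 h. Yap1 mRNA was quantified by qRT-PCR, normalized to total RNA (RIBOGREEN), and reported as % of untreated control.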

Row | Substance | YAP1 (% UTC)
1 | 1075904 (kG*kT*kA*dT*dA*dG*dG*dA*dT*d[5mC]*dT*dA*d[5mC]*kT*kA*kA; antisense) [Compound 1075904] | 51
2 | 1074752 (k[5mC]*kA*kT*dT*dA*dG*dG*dA*dA*d[5mC]*dA*dA*dG*kG*kA*k[5mC]; antisense) [Compound 1074752] | 10
3 | 1075424 (antisense kT*kT*kA*dT*dT*dA*dA*dT*d[5mC]*d[5mC]*dT*dG*dT*k[5mC]*k[5mC]*kA) [Compound 1075424] | 18
4 | 1076512 (antisense k[5mC]*kA*kT*dA*dA*dA*d[5mC]*d[5mC]*dA*dT*dT*dA*dA*kG*kT*kG) [Compound 1076512] | 65
5 | 1075520 (k[5mC]*k[5mC]*k[5mC]*d[5mC]*dA*dA*d[5mC]*dA*dA*d[5mC]*dT*dG*d[5mC]*kT*kA*kA; antisense) [Compound 1075520] | 77
6 | 1076128 (kT*k[5mC]*kT*dA*dA*dA*d[5mC]*d[5mC]*dT*dA*dA*dA*dG*kA*k[5mC]*kT; antisense) [Compound 1076128] | 118
7 | 1074784 (k[5mC]*k[5mC]*kA*dT*dA*dA*dG*dT*dA*dG*dA*dT*d[5mC]*kT*kA*kA; antisense) [Compound 1074784] | 25
8 | 1074688 (antisense kT*k[5mC]*k[5mC]*d[5mC]*d[5mC]*d[5mC]*dT*dA*dA*dG*d[5mC]*dT*dA*kA*kA*kG) [Compound 1074688] | 83
9 | 1075296 (antisense kA*kT*kT*dA*dT*dA*dA*dG*d[5mC]*dT*dG*dT*dG*kT*kT*kG) [Compound 1075296] | 18
10 | 1075968 (kT*kA*kT*dT*dT*dA*dA*dG*d[5mC]*d[5mC]*dA*dA*dA*k[5mC]*k[5mC]*kG; antisense) [Compound 1075968] | 5
11 | 1075552 (kG*kA*kT*dT*dA*dT*dA*dA*d[5mC]*dA*dT*dG*d[5mC]*kT*kG*kT; antisense) [Compound 1075552] | 74
12 | 1074656 (antisense kG*kA*k[5mC]*dT*dT*dA*dA*dT*dT*d[5mC]*dA*dA*dG*kA*kT*kT) [Compound 1074656] | 31

same assay, conditions: Table 15; A-431 cells, 5,000 cells per well, free uptake, 2,000 nM, approximately 48 hours; RTS4814; normalized to RIBOGREEN; Yap1 mRNA relative to untreated control; * = targets amplicon region of primer probe set

Row | Substance | YAP1 (% UTC)
13 | 1075777 (kT*kA*kT*dG*dT*dG*dA*dT*dA*dT*dG*dG*dA*kT*kT*k[5mC]; antisense) [Compound 1075777] | 12
14 | 1074497 (k[5mC]*kA*kA*dT*dA*dA*d[5mC]*d[5mC]*dA*dT*d[5mC]*d[5mC]*d[5mC]*kA*kA*kG; antisense) [Compound 1074497] | 26
15 | 1074817 (k[5mC]*kT*kG*dA*dA*dT*dA*dT*dT*dG*d[5mC]*d[5mC]*dA*k[5mC]*k[5mC]*k[5mC]; antisense) [Compound 1074817] | 8
16 | 1074625 (antisense kA*kT*kA*dA*dG*dG*dG*d[5mC]*dT*dT*dA*dT*dT*k[5mC]*kT*kA) [Compound 1074625] | 42
17 | 1075905 (k[5mC]*k[5mC]*kT*dG*dA*dA*d[5mC]*dA*d[5mC]*dA*dG*dG*dA*kG*kT*kA; antisense) [Compound 1075905] | 43
18 | 1076289 (kA*kA*k[5mC]*dG*dG*dA*d[5mC]*dA*dA*d[5mC]*dT*dT*dA*kA*k[5mC]*kA; antisense) [Compound 1076289] | 21
19 | 1076225 (kA*kT*kA*dT*dA*dA*dA*d[5mC]*d[5mC]*dT*dT*dG*d[5mC]*kT*kA*k[5mC]; antisense) [Compound 1076225] | 66

same assay, conditions: Table 16; A-431 cells, 5,000 cells per well, free uptake, 2,000 nM, approximately 48 hours; RTS4814; normalized to RIBOGREEN; Yap1 mRNA relative to untreated control cells

Row | Substance | YAP1 (% UTC)
20 | 1075938 (kG*kA*kA*dT*dA*dT*dA*dT*dG*dG*dG*dT*dT*kT*k[5mC]*kA; antisense) [Compound 1075938] | 55
21 | 1074114 (kG*kA*kA*d[5mC]*dT*dT*dT*dT*dT*d[5mC]*d[5mC]*d[5mC]*dT*k[5mC]*k[5mC]*kA; antisense) [Compound 1074114] | 30
22 | 1075106 (antisense k[5mC]*kA*kA*dA*dT*dT*dA*dT*dA*dA*dG*dG*dT*k[5mC]*k[5mC]*kT) [Compound 1075106] | 10
23 | 1076098 (kT*kT*kA*d[5mC]*dA*dA*dT*dA*dA*dT*dA*dA*dA*k[5mC]*kG*kA; antisense) [Compound 1076098] | 94
24 | 1074818 (kA*k[5mC]*kT*dG*dA*dA*dT*dA*dT*dT*dG*d[5mC]*d[5mC]*kA*k[5mC]*k[5mC]; antisense) [Compound 1074818] | 12
25 | 1075138 (antisense kA*kA*kT*dA*dA*dT*dA*dG*dA*dT*dA*d[5mC]*dT*kG*k[5mC]*k[5mC]) [Compound 1075138] | 4
26 | 1074498 (kA*k[5mC]*kA*dA*dT*dA*dA*d[5mC]*d[5mC]*dA*dT*d[5mC]*d[5mC]*k[5mC]*kA*kA; antisense) [Compound 1074498] | 17
27 | 1075490 (antisense k[5mC]*kA*kT*dA*dT*dA*d[5mC]*dG*d[5mC]*dA*dA*dT*dT*kA*kG*kT) [Compound 1075490] | 27

same assay, conditions: Table 17; A-431 cells, 5,000 cells per well, free uptake, 2,000 nM, approximately 48 hours; RTS4814; normalized to RIBOGREEN; Yap1 mRNA relative to untreated control cells

Row | Substance | YAP1 (% UTC)
28 | 1075747 (kA*kT*kT*dT*dA*dG*d[5mC]*dA*dT*dG*dA*dT*dT*kA*kA*k[5mC]; antisense) [Compound 1075747] | 43
29 | 1075715 (kG*kA*kA*dT*dT*dA*d[5mC]*dA*dA*dT*d[5mC]*dA*dA*k[5mC]*k[5mC]*kT; antisense) [Compound 1075715] | 12

same assay, conditions: Yap1 mRNA remaining as percent of untreated control; 3-10-3 cEt gapmers; A-431 cells; Table 36

Row | Substance | YAP1 (% UTC)
30 | 1074582 (DNA kT*kA*kA*dA*d[5mC]*d[5mC]*dA*d[5mC]*dT*dA*dT*dA*dA*kA*kG*k[5mC]; antisense) [compound 1074582] | 18
31 | 1075190 (kT*kA*kT*d[5mC]*dA*dA*dG*dG*dA*dT*dT*d[5mC]*dA*kG*kT*kA; antisense) [compound 1075190] | 45
32 | 1074614 (DNA kT*k[5mC]*kA*dT*dA*dG*d[5mC]*dT*dT*dA*dT*dA*dT*kT*kG*kA; antisense) [compound 1074614] | 49
33 | 1075158 (k[5mC]*kG*kG*d[5mC]*dA*dA*dA*dA*dA*d[5mC]*dA*dA*dA*kA*kT*k[5mC]; antisense) [compound 1075158] | 76
34 | 1076470 (kG*kA*kT*dA*dA*dA*dG*dA*dG*dG*dT*dT*dA*kA*k[5mC]*kA; antisense) [compound 1076470] | 34
35 | 1076246 (kT*k[5mC]*k[5mC]*dT*dA*dA*dA*dA*dA*dA*d[5mC]*dT*dA*kG*kT*kG; antisense) [compound 1076246] | 75
36 | 1074134 (k[5mC]*kG*k[5mC]*dG*dG*d[5mC]*d[5mC]*d[5mC]*d[5mC]*dG*d[5mC]*dA*dT*k[5mC]*k[5mC]*k[5mC]; antisense) [compound 1074134] | 79
37 | 1074742 (kA*kA*kA*dG*dG*dA*d[5mC]*dT*d[5mC]*dT*dT*dA*dG*kG*kT*k[5mC]; antisense) [compound 1074742] | 25
38 | 1075734 (kA*kG*kG*d[5mC]*dA*dA*dT*dA*dA*d[5mC]*d[5mC]*dT*d[5mC]*kG*kA*kG; antisense) [compound 1075734] | 26
39 | 1075894 (antisense k[5mC]*kT*k[5mC]*dG*dA*dA*dA*dG*d[5mC]*dT*dG*dG*dG*k[5mC]*k[5mC]*k[5mC]) [compound 1075894] | 100

same assay, conditions: Yap1 mRNA remaining as percent of untreated control; 3-10-3 cEt gapmers; A-431 cells; Table 37

Row | Substance | YAP1 (% UTC)
40 | 1074615 (DNA kT*kT*k[5mC]*dA*dT*dA*dG*d[5mC]*dT*dT*dA*dT*dA*kT*kT*kG; antisense) [compound 1074615] | 8
41 | 1075991 (kA*kT*kA*dT*dA*dG*dG*dA*d[5mC]*d[5mC]*dA*d[5mC]*dG*kA*k[5mC]*kT; antisense) [compound 1075991] | 62
42 | 1075031 (antisense kA*kT*kT*dT*dA*dA*dT*dA*dT*dT*d[5mC]*dG*dA*k[5mC]*kA*k[5mC]) [compound 1075031] | 52
43 | 1076375 (antisense kT*kA*kT*dA*dA*d[5mC]*dG*dG*dA*dT*dA*dT*dA*k[5mC]*kA*kA) [compound 1076375] | 22
44 | 1076247 (kG*kA*k[5mC]*d[5mC]*dA*dA*dA*dA*d[5mC]*dA*dG*d[5mC]*dT*k[5mC]*kT*kT; antisense) [compound 1076247] | 11
45 | 1074263 (antisense kA*kG*k[5mC]*d[5mC]*dG*dA*dG*dT*dT*d[5mC]*dA*dT*d[5mC]*kA*kT*kA) [compound 1074263] | 34
46 | 1075095 (k[5mC]*kT*kT*dG*dA*dA*dA*dA*d[5mC]*dA*dA*dG*d[5mC]*k[5mC]*kA*k[5mC]; antisense) [compound 1075095] | 63
47 | 1074871 (kT*kG*kT*dA*dA*dG*dT*dA*d[5mC]*d[5mC]*dT*dA*dA*k[5mC]*kA*kT; antisense) [compound 1074871] | 70
48 | 1075063 (antisense kT*kA*k[5mC]*dG*dG*dA*dA*dG*dG*d[5mC]*d[5mC]*dA*dA*k[5mC]*kT*kG) [compound 1075063] | 16
49 | 1074903 (antisense k[5mC]*k[5mC]*kT*dA*dT*dT*dA*dA*d[5mC]*dT*dT*dT*dT*kG*kG*kG) [compound 1074903] | 87
